Data: publication PMC11846289, “New tetrahydroisoquinolines bearing nitrophenyl group targeting HSP90 and RET enzymes: synthesis, characterization and biological evaluation” (BMC Chemistry, 2025)
Values after ≈ are worked out from the molar mass of the structure shown.

Assays:
[1] = system: MG-63 (human osteosarcoma); assay: one spot 100 µg/ml cytotoxicity, MG-63; type: cell-based; conditions: Homo sapiens, MG-63, percent inhibition, read-out: one spot concentration inhibition, MG-63
[2] = system: normal human skin cell line (HSF); assay: one spot 100 µg/ml cytotoxicity, normal skin cell line HSF; type: cell-based; conditions: Homo sapiens; for cytotoxicity at 100 µg/mL: HSF, one spot 100 µg/ml, read-out: Inhibition percent of HSF cell line; for inhibition at 100 µg/mL: supplement Table S1, read-out: one spot concentration inhibition, HSF
[3] = system: HUH7 (human liver carcinoma); assay: one spot 100 µg/ml cytotoxicity, HUH7; type: cell-based; conditions: Homo sapiens, Huh-7, percent inhibition, read-out: one spot concentration inhibition, HUH7
[4] = system: MCF7 (human breast carcinoma); assay: one spot 100 µg/ml cytotoxicity, MCF7; type: cell-based; conditions: Homo sapiens, MCF7, percent inhibition, read-out: one spot concentration inhibition, MCF7
[5] = system: CACO2 (colon carcinoma human); assay: one spot 100 µg/ml cytotoxicity, CACO2; type: cell-based; conditions: Homo sapiens, Caco-2, percent inhibition, read-out: one spot concentration inhibition, CACO2
HEPG2 cell line = assay: MTT in vitro cytotoxicity, HEPG2; type: cell-based, human; conditions: for Selectivity Index = IC50 of HSF/IC50 of HEPG2: HSF vs HEPG2; for IC50: Homo sapiens, MTT, HEPG2, read-out: IC50 for HEPG2 ± S.D
Description: (§1) Using the MTT test method, the in vitro cytotoxicity of our synthesized compounds at different doses ranging from […] was examined in two cell lines, HEPG2 and MCF7, to examine 50% of the cancer cells dying.
(§2) Some of the synthesized compounds were tested as anticancer activity for the IC50 against two cell lines HEPG2 and MCF7 cells according to method. All cell lines were obtained from national cancer institute, Cairo—Egypt.

[6] = system: HCT116 (colon carcinoma human); assay: one spot 100 µg/ml cytotoxicity, HCT116; type: cell-based; conditions: Homo sapiens, HCT-116, percent inhibition, read-out: one spot concentration inhibition, HCT116
MCF7 cell line = assay: MTT in vitro cytotoxicity, MCF7; type: cell-based, human; conditions: for Selectivity Index = IC50 of HSF/ IC50 of MCF7: HSF vs MCF7; for IC50: Homo sapiens, MTT, MCF7, read-out: IC50 for MCF7 ± S.D
Description: as §1, §2

[7] = system: HEPG2 (human liver carcinoma); assay: one spot 100 µg/ml cytotoxicity, HEPG2; type: cell-based; conditions: Homo sapiens, HepG2, percent inhibition, read-out: one spot concentration inhibition, HEPG2
[8] = system: A549 (human lung carcinoma); assay: one spot 100 µg/ml cytotoxicity, A549; type: cell-based; conditions: Homo sapiens, A549, percent inhibition, read-out: one spot concentration inhibition, A549
[9] = system: H460 (human lung carcinoma); assay: one spot 100 µg/ml cytotoxicity, H460; type: cell-based; conditions: Homo sapiens, NCI-H460, percent inhibition, read-out: one spot concentration inhibition, H460
HSF = assay: IC50 against normal cell line HSF; type: cell-based, human; conditions: Homo sapiens; normal skin cell line HSF; read-out: IC50 FOR HSF ± S.D.

Compound	inhibition at 100 µg/mL [1] [%]	cytotoxicity at 100 µg/mL [2] [%]	inhibition at 100 µg/mL [2] [%]	inhibition at 100 µg/mL [3] [%]	inhibition at 100 µg/mL [4] [%]	inhibition at 100 µg/mL [5] [%]	Selectivity Index = IC50 of HSF/IC50 of HEPG2 (HEPG2 cell line)	IC50 (HEPG2 cell line) [µg/mL]	inhibition at 100 µg/mL [6] [%]	Selectivity Index = IC50 of HSF/ IC50 of MCF7 (MCF7 cell line)	Selectivity Index = IC50 of HSF/ IC50 of MCF7 (MCF7 cell line; listed as 2A)	IC50 (MCF7 cell line) [µg/mL]	inhibition at 100 µg/mL [7] [%]	inhibition at 100 µg/mL [8] [%]	inhibition at 100 µg/mL [9] [%]	IC50 (HSF) [µg/mL]	Selectivity Index = IC50 of HSF/ IC50 of MCF7 (MCF7 cell line; listed as 6A)
CC(=O)C1C(c2cccc([N+](=O)[O-])c2)c2c(C)[nH]c(=S)c(C#N)c2CC1(C)O (stereo not shown) [Compound 2a, 7-Acetyl-4-cyano-1,6-dimethyl-6-hydroxy-8-(3-nitrophenyl)−5,6,7,8-tetra-hydroisoquinoline-3(2H)-thione]	41.9	48	46.2	27.4	74	55.1	1.2	82 ± 0.054 (≈ 206 µM)	62.3	> 2	2.8	35 ± 0.061 (≈ 88.1 µM)	61.3	42.4	55.3	100 (≈ 252 µM)	
CCOC(=O)CSc1nc(C)c2c(c1C#N)CC(C)(O)C(C(C)=O)C2c1cccc([N+](=O)[O-])c1 (stereo not shown) [Compound 4, Ethyl 2-[(7-acetyl-4-cyano-1,6-dimethyl-6-hydroxy-8-(3-nitrophenyl)−5,6,7,8-tetra-hydroisoquinolin-3-yl)thio]acetate]	53.8	50	49.4	27.5	76.3	64.4	1.2	80 ± 0.07 (≈ 165 µM)	56.8	2.1		47 ± 0.055 (≈ 97.2 µM)	62.1	47.2	66.8	100 (≈ 207 µM)	
CC(=O)C1C(c2ccc([N+](=O)[O-])cc2)c2c(C)nc(SCC#N)c(C#N)c2CC1(C)O (stereo not shown) [Compound 5, 2-[(7-Acetyl-4-cyano-1,6-dimethyl-6-hydroxy-8-(4-nitrophenyl)−5,6,7,8-tetra-hydroisoquinolin-3-yl)thio]acetoonitriile]	55.7	70	66.8	35.5	67.6	61.5	0.73	97 ± 0.053 (≈ 222 µM)	58.9	2.1		33 ± 0.042 (≈ 75.6 µM)	68.2	55.2	66.6	71 (≈ 163 µM)	
CC(=O)c1ccc(NC(=O)CSc2nc(C)c3c(c2C#N)CC(C)(O)C(C(C)=O)C3c2cccc([N+](=O)[O-])c2)cc1 (stereo not shown) [Compound 6a, 2-[(7-Acetyl-4-cyano-1,6-dimethyl-6-hydroxy-8-(3-nitrophenyl)−5,6,7,8-tetra-hydroisoquinolin-3-yl)thio]-N-(4-acetylphenyl)acetamide]	45.8	56	53.5	38.6	66.4	54.8		> 100	58.1	> 2		21 ± 0.057 (≈ 36.7 µM)	59.5	20.3	63.5	89 (≈ 155 µM)	4.2
